Source: the NIST ThermoML archive (doi:10.1021/je2006743)

Details: 101.33 kPa, Liquid; for viscosity: Falling or rolling sphere viscometry; for mass density: Vibrating tube method

CCCC[N+](C)(C)C.O=S(=O)([N-]S(=O)(=O)C(F)(F)F)C(F)(F)F [butyltrimethylammonium bis(trifluoromethylsulfonyl)imide]
Details | mass density [kg/m3] | viscosity [mPa·s]
293.15 K | – | 138
293.26 K | 1396.5 | –
303.15 K | – | 82.3
303.22 K | 1387.6 | –
313.03 K | 1379 | –
313.15 K | – | 52.2
323.13 K | 1370 | –
323.15 K | – | 35.5
333.15 K | – | 27.9
333.17 K | 1361.3 | –
343.15 K | – | 21.5
343.18 K | 1352.8 | –

CCC[N+](C)(C)CCO.O=S(=O)([N-]S(=O)(=O)C(F)(F)F)C(F)(F)F
Details | mass density [kg/m3] | viscosity [mPa·s]
293.15 K | – | 160
293.16 K | 1453.6 | –
303.15 K | – | 92.7
303.16 K | 1444.5 | –
313.11 K | 1435.7 | –
313.15 K | – | 58.1
323.14 K | 1426.8 | –
323.15 K | – | 38.7
333.15 K | – | 30.3
333.16 K | 1418.1 | –
343.14 K | 1408.7 | –
343.15 K | – | 22.9

CCCC[N+]1(C)CCCC1.O=S(=O)([N-]S(=O)(=O)C(F)(F)F)C(F)(F)F
Details | mass density [kg/m3] | viscosity [mPa·s]
293.09 K | 1398 | –
293.15 K | – | 101
302.89 K | 1389.2 | –
303.15 K | – | 63.8
313.15 K | – | 41.8
313.59 K | 1379.8 | –
323.15 K | – | 28.9
323.38 K | 1371.3 | –
332.57 K | 1363.1 | –
333.15 K | – | 23.5
342.84 K | 1354.6 | –
343.15 K | – | 18.6

O=S(=O)([N-]S(=O)(=O)C(F)(F)F)C(F)(F)F.OCCC[n+]1ccccc1
Details | mass density [kg/m3] | viscosity [mPa·s]
293.15 K | 1551 | 160
303.15 K | – | 92.2
303.24 K | 1541.7 | –
313.14 K | 1532.1 | –
313.15 K | – | 57.7
323.15 K | 1522.9 | 38.2
333.15 K | – | 29.4
333.16 K | 1513.8 | –
343.13 K | 1504.7 | –
343.15 K | – | 22.8

CCCCCC[n+]1cccc(C)c1.O=S(=O)([N-]S(=O)(=O)C(F)(F)F)C(F)(F)F
Details | mass density [kg/m3] | viscosity [mPa·s]
293.14 K | 1356.1 | –
293.15 K | – | 105
303.15 K | – | 64.2
303.17 K | 1347.1 | –
313.14 K | 1338.4 | –
313.15 K | – | 41.2
323.13 K | 1329.7 | –
323.15 K | – | 28.3
333.15 K | – | 22.5
333.22 K | 1321 | –
343 K | 1312.9 | –
343.15 K | – | 17.5

CC(=O)OCC[N+](C)(C)C.O=S(=O)([N-]S(=O)(=O)C(F)(F)F)C(F)(F)F
Details | mass density [kg/m3] | viscosity [mPa·s]
293.15 K | – | 309
293.18 K | 1486.9 | –
303.15 K | – | 162
303.19 K | 1477.3 | –
313.15 K | – | 90.7
313.21 K | 1468 | –
323.15 K | – | 56.8
323.16 K | 1458.8 | –
333.15 K | – | 38.5
333.19 K | 1449.7 | –
343.15 K | – | 27.5
343.21 K | 1440.5 | –
